# Experimental data as given in US20070128217A1 (priority 2003, published 2007).
# What was measured:
# [1] = system: antibodies in sera from SARS patients (sera 1a, 1b, 2, 6, 37, 62, London, SARS-yellow, SARS-green); assay type: binding, human; set-up: Binding of serum 6 to linear peptides of protein X1 of SARS-CoV Urbani / Binding of serum 37 to linear peptides of protein X1 of SARS-CoV Urbani / Binding of serum 6 to looped/cyclic peptide (PEPSCAN-ELISA) / Binding of serum 37 to looped/cyclic peptide (PEPSCAN-ELISA) / Binding of serum 37 to looped/cyclic peptides of protein X1 of SARS-CoV Urbani / Binding of serum 6 to linear peptides of protein X2 / Binding of serum 37 to linear peptides of protein X2 / Binding of serum 37 to looped/cyclic peptides of protein X2 of SARS-CoV Urbani / Binding of serum 6 to linear peptides of protein M of SARS-CoV Urbani / Binding of serum 37 to linear peptides of protein M of SARS-CoV Urbani / Binding of serum 6 to looped/cyclic peptides of protein M of SARS-CoV Urbani / Binding of serum 37 to looped/cyclic peptides of protein M of SARS-CoV Urbani / Binding of serum 6 to linear peptides of protein X3 of SARS-CoV Urbani / Binding of serum 37 to linear peptides of protein X3 of SARS-CoV Urbani / Binding of serum 37 to looped/cyclic peptides of protein X3 of SARS-CoV Urbani / Binding of serum 6 to linear peptides of protein X4 of SARS-CoV Urbani / Binding of serum 37 to linear peptides of protein X4 of SARS-CoV Urbani / Binding of serum 37 to looped/cyclic peptides of protein X4 of SARS-CoV Urbani / Binding of serum 6 to linear peptides of protein X5 of SARS-CoV Urbani / Binding of serum 37 to linear peptides of protein X5 of SARS-CoV Urbani / Binding of serum 37 to looped/cyclic peptides of protein X5 of SARS-CoV Urbani / Binding of serum 6 to linear peptides of protein N of SARS-CoV Urbani / Binding of serum 37 to linear peptides of protein N of SARS-CoV Urbani / Binding of serum 6 to linear peptide (PEPSCAN-ELISA) / Binding of serum 1a to looped/cyclic peptides of protein N of SARS-CoV Urbani / Binding of serum 1b to looped/cyclic peptides of protein N of SARS-CoV Urbani / Binding of serum 2 to looped/cyclic peptides of protein N of SARS-CoV Urbani / Binding of serum 6 to looped/cyclic peptides of protein N of SARS-CoV Urbani / Binding of serum 37 to looped/cyclic peptides of protein N of SARS-CoV Urbani / Binding of serum 62 to looped/cyclic peptides of protein N of SARS-CoV Urbani / Binding of serum London to looped/cyclic peptides of protein N of SARS-CoV Urbani / Binding of serum SARS-green to looped/cyclic peptides of protein N of SARS-CoV Urbani: unit not given here
# [2] = system: rabbit serum obtained by immunizing a rabbit with the SARS-CoV strain Frankfurt 1; assay type: binding; set-up: Binding of a rabbit serum to linear peptides / Binding of a rabbit serum to looped peptides / Rabbit serum linear peptides / Rabbit serum looped peptides / Binding of a rabbit serum to linear peptides of protein N of SARS-CoV Urbani (Rabbit serum linear peptides) / Binding of a rabbit serum to looped/cyclic peptides of protein N of SARS-CoV Urbani (Rabbit serum looped peptides): unit not given here
Sequence,Binding of serum 1a to looped/cyclic peptide (PEPSCAN-ELISA) [1],Binding of serum 1b to looped/cyclic peptide (PEPSCAN-ELISA) [1],Binding of serum 2 to looped/cyclic peptide (PEPSCAN-ELISA) [1],Binding of serum 6 to looped/cyclic peptide (PEPSCAN-ELISA) [1],Binding of serum 37 to looped/cyclic peptide (PEPSCAN-ELISA) [1],Binding of serum 62 to looped/cyclic peptide (PEPSCAN-ELISA) [1],Binding of serum London to looped/cyclic peptide (PEPSCAN-ELISA) [1],Binding of serum SARS-green to looped/cyclic peptide (PEPSCAN-ELISA) [1],Binding of serum SARS-yellow to looped/cyclic peptide (PEPSCAN-ELISA) [1],Binding of a rabbit serum to linear peptides [2],Binding of a rabbit serum to looped peptides [2],other results
RCWLCWKCKSKNPLL,0.7,0.5,0.7,0.8,0.8,0.7,0.4,0.4,0.7,0.1,0.7,"Recognition of the peptide by sera of SARS-CoV infected individuals, and form (linear, looped/cyclic) in which it is recognized [1]: recognized in linear form"
KIIALNKRWQLALYK,0.7,0.5,0.7,0.8,0.8,0.7,0.3,0.3,0.5,,,Binding of serum 1a to linear peptides of protein X1 of SARS-CoV Urbani [1]: 0.8; Binding of serum 1b to linear peptides of protein X1 of SARS-CoV Urbani [1]: 0.7; Binding of serum 2 to linear peptides of protein X1 of SARS-CoV Urbani [1]: 0.7; Binding of serum 6 to linear peptides of protein X1 of SARS-CoV Urbani [1]: 1.0; Binding of serum 37 to linear peptides of protein X1 of SARS-CoV Urbani [1]: 0.8; Binding of serum 62 to linear peptides of protein X1 of SARS-CoV Urbani [1]: 0.8; Binding of serum London to linear peptides of protein X1 of SARS-CoV Urbani [1]: 0.4; Binding of serum SARS-green to linear peptides of protein X1 of SARS-CoV Urbani [1]: 0.4; Binding of serum SARS-yellow to linear peptides of protein X1 of SARS-CoV Urbani [1]: 0.5; Recognition of the peptide by the rabbit serum [2]: recognized
IALNKRWQLALYKGF,0.5,0.4,0.5,0.4,0.5,0.7,0.3,0.4,0.6,,,Binding of serum 1a to linear peptides of protein X1 of SARS-CoV Urbani [1]: 0.8; Binding of serum 1b to linear peptides of protein X1 of SARS-CoV Urbani [1]: 0.7; Binding of serum 2 to linear peptides of protein X1 of SARS-CoV Urbani [1]: 0.6; Binding of serum 6 to linear peptides of protein X1 of SARS-CoV Urbani [1]: 0.9; Binding of serum 37 to linear peptides of protein X1 of SARS-CoV Urbani [1]: 0.7; Binding of serum 62 to linear peptides of protein X1 of SARS-CoV Urbani [1]: 0.7; Binding of serum London to linear peptides of protein X1 of SARS-CoV Urbani [1]: 0.3; Binding of serum SARS-green to linear peptides of protein X1 of SARS-CoV Urbani [1]: 0.4; Binding of serum SARS-yellow to linear peptides of protein X1 of SARS-CoV Urbani [1]: 0.5; Recognition of the peptide by the rabbit serum [2]: recognized
ATKIIALNKRWQLAL,0.6,0.4,0.5,0.5,0.6,0.7,0.3,0.3,0.6,,,Binding of serum 1a to linear peptides of protein X1 of SARS-CoV Urbani [1]: 0.7; Binding of serum 1b to linear peptides of protein X1 of SARS-CoV Urbani [1]: 0.6; Binding of serum 2 to linear peptides of protein X1 of SARS-CoV Urbani [1]: 0.6; Binding of serum 6 to linear peptides of protein X1 of SARS-CoV Urbani [1]: 0.7; Binding of serum 37 to linear peptides of protein X1 of SARS-CoV Urbani [1]: 0.8; Binding of serum 62 to linear peptides of protein X1 of SARS-CoV Urbani [1]: 0.8; Binding of serum London to linear peptides of protein X1 of SARS-CoV Urbani [1]: 0.4; Binding of serum SARS-green to linear peptides of protein X1 of SARS-CoV Urbani [1]: 0.3; Binding of serum SARS-yellow to linear peptides of protein X1 of SARS-CoV Urbani [1]: 0.7; Recognition of the peptide by the rabbit serum [2]: recognized
AVFQSATKIIALNKR,0.4,0.4,0.6,0.7,0.6,0.6,0.9,0.2,0.4,,,Binding of serum 1a to linear peptides of protein X1 of SARS-CoV Urbani [1]: 0.8; Binding of serum 1b to linear peptides of protein X1 of SARS-CoV Urbani [1]: 0.6; Binding of serum 2 to linear peptides of protein X1 of SARS-CoV Urbani [1]: 0.6; Binding of serum 6 to linear peptides of protein X1 of SARS-CoV Urbani [1]: 0.8; Binding of serum 37 to linear peptides of protein X1 of SARS-CoV Urbani [1]: 0.7; Binding of serum 62 to linear peptides of protein X1 of SARS-CoV Urbani [1]: 0.6; Binding of serum London to linear peptides of protein X1 of SARS-CoV Urbani [1]: 0.3; Binding of serum SARS-green to linear peptides of protein X1 of SARS-CoV Urbani [1]: 0.3; Binding of serum SARS-yellow to linear peptides of protein X1 of SARS-CoV Urbani [1]: 0.5; Recognition of the peptide by the rabbit serum [2]: recognized
LFAGTHITMTTVYHI,,,,,,,,,,0.6,0.5,
HEGHQTAAFRDVLVV,,,,,,,,,,,,Rabbit serum linear peptides [2]: 0.2; Rabbit serum looped peptides [2]: 0.8
GHLRMAGHPLGRCDI,,,,,,,,,,,,Rabbit serum linear peptides [2]: 0.4; Rabbit serum looped peptides [2]: 0.7
FQSATKIIALNKRWQ,0.5,0.3,0.4,0.5,0.5,0.5,0.2,0.3,0.2,,,Binding of serum 1a to linear peptides of protein X1 of SARS-CoV Urbani [1]: 0.8; Binding of serum 1b to linear peptides of protein X1 of SARS-CoV Urbani [1]: 0.6; Binding of serum 2 to linear peptides of protein X1 of SARS-CoV Urbani [1]: 0.6; Binding of serum 6 to linear peptides of protein X1 of SARS-CoV Urbani [1]: 0.6; Binding of serum 37 to linear peptides of protein X1 of SARS-CoV Urbani [1]: 0.7; Binding of serum 62 to linear peptides of protein X1 of SARS-CoV Urbani [1]: 0.7; Binding of serum London to linear peptides of protein X1 of SARS-CoV Urbani [1]: 0.3; Binding of serum SARS-green to linear peptides of protein X1 of SARS-CoV Urbani [1]: 0.4; Binding of serum SARS-yellow to linear peptides of protein X1 of SARS-CoV Urbani [1]: 0.4; Recognition of the peptide by the rabbit serum [2]: recognized
STVHATATIPLQASL,,,,,,,,,,0.6,0.5,
PTTLFAGTHITMTTV,,,,,,,,,,0.8,0.4,
NASPASTVHATATIP,,,,,,,,,,0.6,0.3,
PASTVHATATIPLQA,,,,,,,,,,0.9,0.5,
IMRCWLCWKGKSKNP,,,,,,,,,,0.1,0.3,
SPASTVHATATIPLQ,,,,,,,,,,1.0,0.4,
CPSGTYEGNSPFNPL,,,,,,,,,,,,Rabbit serum linear peptides [2]: 0.5; Rabbit serum looped peptides [2]: 0.7
GTHITMTTVYHITVS,,,,,,,,,,2.1,0.4,
GHPLGRCDTKDLPKE,,,,,,,,,,,,Rabbit serum linear peptides [2]: 0.3; Rabbit serum looped peptides [2]: 0.0
CWYLHEGHQTAAFRD,,,,,,,,,,,,Rabbit serum linear peptides [2]: 0.3; Rabbit serum looped peptides [2]: 0.4
